# Where “and” joins values, the source holds several entries; their conditions need not be identical. Equal entries are not always repeated.
# How the values were obtained:
# JCV Mad-4 = JCV Mad-4 extracellular load in astrocyte cells; assay type: cell-based, JC virus; details: in the presence of CMX001
# ADV = assay: Retrospective analysis of EIND patients with AdV disease; assay type: in vivo, human
# Description: The records of patients who were granted emergency investigational-new-drug approval for CMX001 for treatment of AdV were analyzed retrospectively. Of the 16 patients with AdV disease treated with CMX001, 13 had data available for ≧4 weeks after starting CMX001. Doses of CMX001 ranged from approximately 1 mg/kg once weekly to 4 mg/kg twice weekly. Adenovirus qPCR was performed at VireCor (9 cases), Focus Diagnostics (2) and Molecular Virology Laboratory, University of Washington (2). Disseminated AdV disease was defined by the isolation of the virus from 2 or more sites, including blood. At the end of CMX001 treatment, virologic response (VR) was defined as either ≧99% drop in plasma VL from baseline or undetectable plasma virus. The Wilcoxon signed rank test was used to evaluate whether VL changed from baseline to weeks 1, 2, 4, 6, and 8. Logistic regression models were employed to evaluate possible associations between covariates and VR.
# Vaccinia Virus [1] = assay: microbe, parasite or virus in culture; assay type: cell-based
# Mad-4 JCV = assay: JCV (Mad-4) initial infection of SVG cells (in situ DNA hybridization, qPCR)
# CMV [2] = test system: CMV
# vaccinia virus [3] = details: CMX001 200 mg initial dose plus other therapies (MMWR 2009); cited from earlier work
# PK comparison, rabbit = details: in vivo, 2 mg/kg, calculated from doses of 5 and 10 mg/kg, analyte = label, after CMX001
# From the text: (§1) Table 4 illustrates the PK comparison of CMX001 with CMX021 and CMX064 for mouse, rabbit and human.
# adenovirus = assay: Pediatric bone marrow transplant recipient with disseminated adenovirus infection
# HSV-1 = assay: In vitro potency against dsDNA viruses: HSV-1; assay type: cell-based
# BK Virus = assay: In vitro potency against BK Virus in WI-38 cells; assay type: cell-based
# JC = assay: In vitro potency against dsDNA viruses: JC; assay type: cell-based, JC virus
# HSV-2, strain MS = details: previous work; cited from earlier work
# [4] = Safety of CMX001 in HSCT and renal transplant recipients with BK virus viruria (blinded); assay type: in vivo, human; parameters: Mean ALT: unit not given here
# From the text: Safety and tolerability of CMX001 in HSCT and renal transplant recipients with BK virus viruria is studied. The safety and tolerability of CMX001 in a post-transplant population is investigated and levels of BKV DNA in urine and plasma over time is monitored.
# Twelve HSCT and twelve renal transplant recipients randomized 2:1 (CMX001:Placebo)
# BKV viruria >10^4, renal transplant recipients allowed with viremia <10^4
# Concomitant valganciclovir/ganciclovir excluded for HSCT recipients only Dosing Schedule: […]
# PK comparison, mouse = assay type: in vivo; details: in vivo, 2 mg/kg, calculated from doses of 2 and 10 mg/kg, analyte = label
# From the text: as §1
# human astrocytes = assay: Toxicity evaluation in human astrocytes (XTT); assay type: cell-based; details: two experiments, different astrocyte lots; listed as CMX001-044
# BKV = assay: First fifteen EIND patients: BKV; assay type: in vivo, human; details: one of two BKV patients
# [5] = Oral toxicology studies, nephrotoxicity; assay type: in vivo, mice, rats, rabbits and monkeys
# From the text: In addition, over twenty-one toxicology studies have been conducted in mice, rats, rabbits and monkeys with CMX001 being delivered by the oral route.
# HPV 18 = assay: In vitro potency against dsDNA viruses: HPV 18; assay type: cell-based
# CMV [6] = assay: First fifteen EIND patients: CMV; assay type: in vivo, human; details: six CMV patients, three evaluable
# From the text: Three were evaluable for viral load reductions and 3/3 responded. Two of the patients who could not be evaluated for reductions in CMV had undetectable levels throughout CMX001 therapy. One patient received only one dose of CMX001 with no virologic follow up.
# [7] = renal transplant subjects, Day 0
# [8] = renal transplant subjects, Day 7
# [9] = renal transplant subjects, Day 14
# [10] = renal transplant subjects, Day 21
# [11] = renal transplant subjects, Day 28
# [12] = stem cell transplant subjects, Day 0
# [13] = stem cell transplant subjects, Day 7
# [14] = stem cell transplant subjects, Day 14
# [15] = stem cell transplant subjects, Day 21
# [16] = stem cell transplant subjects, Day 28
smiles,measurement,setting,value
"CCCCCCCCCCCCCCCCOCCCOP(=O)(O)CO[C@H](CO)Cn1ccc(N)nc1=O [CMX001, Hexadecyloxypropyl-cidofovir]",change in extracellular JCV load over 7 days,JCV Mad-4,less than 1 log
same,patients achieving virologic response (VR),"ADV; 8 of 13 patients, VR = ≧99% drop in plasma VL or undetectable",61.5%
same,safety,ADV; 13 patients,"No serious adverse events, gastro-intestinal, renal or bone marrow toxicity were reported"
same,"Median decrease from baseline, adenovirus viral load",ADV; Week 1,1.43 log10
same,"Median decrease from baseline, adenovirus viral load",ADV; Week 2,1.71 log10
same,"Median decrease from baseline, adenovirus viral load",ADV; Week 4,1.89 log10
same,"Median decrease from baseline, adenovirus viral load",ADV; Week 6,2.44 log10
same,"Median decrease from baseline, adenovirus viral load",ADV; Week 8,2.98 log10
same,Enhanced Activity,Vaccinia Virus [1]; CMX001 versus cidofovir EC50,57
same,EC50,"Vaccinia Virus [1]; Orthopoxvirus vaccinia, HFF",800 nM
same,reduction in percentage of JCV DNA containing cells,"Mad-4 JCV; 0.03 μM, 4 days",46%
same,decrease in number of JCV genome copies (qPCR),"Mad-4 JCV; 0.07 μM, 4 days",57%
same,reduction in percentage of JCV DNA containing cells,"Mad-4 JCV; 0.07 μM, 4 days",57%
same,"maximal suppression of JCV DNA containing cells, normalized to total cell number",Mad-4 JCV; 0.1 μM,52%
same,reduction in percentage of JCV DNA containing cells,"Mad-4 JCV; 0.1 μM, 4 days",71%
same,EC50,"Mad-4 JCV; JC polyomavirus, read-out: EC50, JCV copy number",45 nM
same,average reduction in CMV by PCR,CMV [2]; 2 of 5 patients without UL54 mutations,1.2 log 10
same,median reduction in VL,"CMV [2]; 4 weeks, 7 patients",greater than 1.2 log 10
same,1 log reduction in viremia at the last time point,CMV [2]; patients with UL54 mutation (L501F and A987G),Neither of two patients
same,complete response,CMV [2]; patients without mutations in CMV UL54 (3 of 5),60%
same,dose adjustment for kidney function,CMV [2]; two patients with pre-existing renal insufficiency,no dose adjustment was needed based on kidney function
same,time until virus cultures at the vaccination site became negative for vaccinia virus,vaccinia virus [3],≤ 5 days
same,AUC,"PK comparison, rabbit",102 ng·h/mL
same,Cmax,"PK comparison, rabbit",18 ng/mL
same,tolerability,adenovirus; 2-3 mg/kg,well tolerated
same,"peak cidofovir concentrations, fold lower than label for 5 mg/kg Vistide","adenovirus; female, human, plasma, oral",more than 100 fold
same,decrease in viral load,adenovirus; oral CMX001,8 log
same,Enhanced Activity,HSV-1; CMX001 versus cidofovir EC50,250
same,EC50,"HSV-1; Human alphaherpesvirus 1, MRC5, MRC-5",60 nM
same,EC50,"BK Virus; Betapolyomavirus hominis, WI-38",130 nM
same,selectivity index (SI)-50,"BK Virus; WI-38, cells harvested 7 days after infection",113
same,Enhanced Activity,JC; CMX001 versus cidofovir EC50,19
same,EC50,JC; JC polyomavirus,20 nM
same,optimal dose of CMX001 in this model,"HSV-2, strain MS",5 mg/kg
same,Mean Serum creatinine,"[4]; renal transplant subjects, 40 mg/wk×5, Day 0",1.3 mg/dL
same,Mean ALT,[4]; [7],19.3
same,Mean absolute Neutrophil count,[4]; [7],3.16 1000 per cu mm
same,Mean ALT,[4]; [8],22.4
same,Mean Serum creatinine,[4]; [8],1.3 mg/dL
same,Mean absolute Neutrophil count,[4]; [8],4.88 1000 per cu mm
same,Mean ALT,[4]; [9],21.4
same,Mean Serum creatinine,[4]; [9],1.3 mg/dL
same,Mean absolute Neutrophil count,[4]; [9],4.59 1000 per cu mm
same,Mean ALT,[4]; [10],19.6
same,Mean Serum creatinine,[4]; [10],1.4 mg/dL
same,Mean absolute Neutrophil count,[4]; [10],3.46 1000 per cu mm
same,Mean ALT,[4]; [11],18.2
same,Mean Serum creatinine,[4]; [11],1.4 mg/dL
same,Mean absolute Neutrophil count,[4]; [11],4.42 1000 per cu mm
same,Mean Serum creatinine,"[4]; stem cell transplant subjects, 40 mg/wk×5, Day 0",0.93 mg/dL
same,Mean ALT,[4]; [12],32.7
same,Mean absolute Neutrophil count,[4]; [12],4.40 1000 per cu mm
same,Mean ALT,[4]; [13],17
same,Mean Serum creatinine,[4]; [13],1.0 mg/dL
same,Mean absolute Neutrophil count,[4]; [13],4.40 1000 per cu mm
same,Mean ALT,[4]; [14],17.5
same,Mean Serum creatinine,[4]; [14],0.9 mg/dL
same,Mean absolute Neutrophil count,[4]; [14],3.55 1000 per cu mm
same,Mean ALT,[4]; [15],21.0
same,Mean Serum creatinine,[4]; [15],0.9 mg/dL
same,Mean absolute Neutrophil count,[4]; [15],3.50 1000 per cu mm
same,Mean ALT,[4]; [16],20.0
same,Mean Serum creatinine,[4]; [16],1.2 mg/dL
same,Mean absolute Neutrophil count,[4]; [16],3.15 1000 per cu mm
same,AUC,"PK comparison, mouse; after CMX001",83.1 ng·h/mL
same,Cmax,"PK comparison, mouse; after CMX001, read-out: Cmax",7.9 ng/mL
same,TC50,human astrocytes,134400 nM and 165800 nM
same,response,BKV,> 1.5 log 10
same,indication of nephrotoxicity,"[5]; over twenty-one toxicology studies, oral route",In none of these studies
same,evidence of nephrotoxicity,"[5]; single and repeated dosing in animals and human volunteers, 0.1 mg/kg to 4.0 mg/kg",no evidence of nephrotoxicity
same,Enhanced Activity,HPV 18; CMX001 versus cidofovir EC50,1229
same,EC50,HPV 18; HeLa,420 nM
same,evaluable patients responding (viral load reductions),CMV [6],3/3
